Key:
[1] = system: adult stage American dog ticks, Dermacentor variabilis; assay: Oral administration per os to dogs, experimental American dog tick infestation; assay type: in vivo; details: at the doses tested (30 mg/kg)
Protocol: Oral administration per os to dogs. Given the above data, investigation into oral efficacy in dogs was begun. The investigation was conducted to evaluate 1) efficacy for a point dose of 30 mg/kg, against experimental, concurrent infestations with the adult cat flea, Ctenocephalides felis; adult stage American dog ticks, Dermacentor variabilis; and adult stage kennel ticks, Rhipicephalus sanguineus; 2) plasma concentrations of the 30 mg/kg treated dogs; and 3) efficacy for point dosages of either 50 mg/kg or 100 mg/kg, against experimental infestations with adult stage kennel ticks, R. sanguineus.
Sixteen dogs were selected for two groups of eight dogs (4 male: 4 female) per group. One treatment group received spinetoram, while the other group was left untreated. The dogs were housed individually in concrete-floored chain-link kennels both inside and outside. During the study period the dogs were fed a dry dog chow, except for the day of treatment (day 0) when they received wet canned food. The dogs had ad libitum access to water. […]
Each dog was experimentally infested with about 100 adult fleas, and 50 ticks of each species on test days—1,5,12,19, 28, 35, and 42, with additional flea infestations conducted on days 49 and 56. […] Knockdown activity (Day 1) was determined using 24 hr post-dosing comb counts. […]

[2] = system: Ctenocephalides felis; assay: Pulse vs. single dose administration per os to dogs, flea infestation comb counts; assay type: in vivo
Protocol: Pulse vs. Single dose administration per os to dogs/Ctenocephalides felis Another dog study was undertaken to evaluate the effect on flea infestation of 1) oral administration of a single point dose of 60 mg/kg; 2) oral administration of a pulsed dosing scheme of 20 mg/kg TID every 2 hours for one day; 3) oral administration of a pulsed dosing scheme of 20 mg/kg TID every 4 hours for one day; and 4) post-treatment plasma concentration of spinetoram.
Four treatment groups of 8 dogs each (4 male: 4 female) were dosed spinetoram as follows:
Treatment Group 1: 60 mg/kg, single dose
Treatment Group 2: 60 mg/kg, (20 mg/kg every 2 hours, three times)
Treatment Group 3: 60 mg/kg, (20 mg/kg every 4 hours, three times)
Treatment Group 4: 0 mg/kg, (negative control)
The dogs were housed individually in concrete-floored chain-link kennels both inside and outside. During the study period the dogs were fed a dry dog chow, except for two days prior to and the day of treatment (day 0) when they received wet canned food. The dogs had ad libitum access to water.
The treated dogs received one or more gelatin capsules containing technical active spinetoram powder by mouth, with treatment group 4 receiving placebo. Each dog was experimentally infested with about 100 fleas on test days—1,5,12,19, 28, 35, 42, 49, and 56. Knockdown assessments were conducted 24 hours after dosing, with residual efficacy evaluated subsequently at 48 hours after each subsequent infestation. The day 1 comb count served to determine the initial/knockdown efficacy, approximately 24 hours after the 60 mg/kg dose, or the first of the pulse dose. Blood samples were drawn to determine concentration of spinetoram in plasma.

Spinetoram
activity against ticks [1]: did not demonstrate statistically significant activity
geometric mean live adult flea count ([2]; oral 20 mg/kg TID@2 h, Day 1): 0.0
geometric mean percent reduction in live adult flea counts compared to the untreated control group ([2]; oral 20 mg/kg TID@2 h, Day 1): (100) percent
geometric mean live adult flea count ([2]; oral 20 mg/kg TID@2 h, Day 7): 0.0
geometric mean percent reduction in live adult flea counts compared to the untreated control group ([2]; oral 20 mg/kg TID@2 h, Day 7): (100) percent
geometric mean live adult flea count ([2]; oral 20 mg/kg TID@2 h, Day 14): 0.0
geometric mean percent reduction in live adult flea counts compared to the untreated control group ([2]; oral 20 mg/kg TID@2 h, Day 14): (100) percent
geometric mean live adult flea count ([2]; oral 20 mg/kg TID@2 h, Day 21): 0.0
geometric mean percent reduction in live adult flea counts compared to the untreated control group ([2]; oral 20 mg/kg TID@2 h, Day 21): (100) percent
geometric mean live adult flea count ([2]; oral 20 mg/kg TID@2 h, Day 30): 0.0
geometric mean percent reduction in live adult flea counts compared to the untreated control group ([2]; oral 20 mg/kg TID@2 h, Day 30): (100) percent
geometric mean live adult flea count ([2]; oral 20 mg/kg TID@2 h, Day 37): 0.0
geometric mean percent reduction in live adult flea counts compared to the untreated control group ([2]; oral 20 mg/kg TID@2 h, Day 37): (100) percent
geometric mean live adult flea count ([2]; oral 20 mg/kg TID@2 h, Day 44): 0.0
geometric mean percent reduction in live adult flea counts compared to the untreated control group ([2]; oral 20 mg/kg TID@2 h, Day 44): (100) percent
geometric mean live adult flea count ([2]; oral 20 mg/kg TID@2 h, Day 51): 0.0
geometric mean percent reduction in live adult flea counts compared to the untreated control group ([2]; oral 20 mg/kg TID@2 h, Day 51): (100) percent
geometric mean live adult flea count ([2]; oral 20 mg/kg TID@2 h, Day 58): 0.0
geometric mean percent reduction in live adult flea counts compared to the untreated control group ([2]; oral 20 mg/kg TID@2 h, Day 58): (100) percent
geometric mean live adult flea count ([2]; oral 20 mg/kg TID@2 h, Day 72): 0.0
geometric mean percent reduction in live adult flea counts compared to the untreated control group ([2]; oral 20 mg/kg TID@2 h, Day 72): (100) percent
geometric mean live adult flea count ([2]; oral 20 mg/kg TID@2 h, Day 86): 6.4
geometric mean percent reduction in live adult flea counts compared to the untreated control group ([2]; oral 20 mg/kg TID@2 h, Day 86): (91.7) percent
geometric mean live adult flea count ([2]; oral 20 mg/kg TID@2 h, Day 93): 2.5
geometric mean percent reduction in live adult flea counts compared to the untreated control group ([2]; oral 20 mg/kg TID@2 h, Day 93): (96.7) percent
geometric mean live adult flea count ([2]; oral 20 mg/kg TID@2 h, Day 100): 10.0
geometric mean percent reduction in live adult flea counts compared to the untreated control group ([2]; oral 20 mg/kg TID@2 h, Day 100): (88.0) percent
geometric mean live adult flea count ([2]; oral 20 mg/kg TID@2 h, Day 107): 4.8
geometric mean percent reduction in live adult flea counts compared to the untreated control group ([2]; oral 20 mg/kg TID@2 h, Day 107): (94.1) percent
geometric mean live adult flea count ([2]; oral 20 mg/kg TID@4 h, Day 1): 0.0
geometric mean percent reduction in live adult flea counts compared to the untreated control group ([2]; oral 20 mg/kg TID@4 h, Day 1): (100) percent
geometric mean live adult flea count ([2]; oral 20 mg/kg TID@4 h, Day 7): 0.0
geometric mean percent reduction in live adult flea counts compared to the untreated control group ([2]; oral 20 mg/kg TID@4 h, Day 7): (100) percent
geometric mean live adult flea count ([2]; oral 20 mg/kg TID@4 h, Day 14): 0.0
geometric mean percent reduction in live adult flea counts compared to the untreated control group ([2]; oral 20 mg/kg TID@4 h, Day 14): (100) percent
geometric mean live adult flea count ([2]; oral 20 mg/kg TID@4 h, Day 21): 0.0
geometric mean percent reduction in live adult flea counts compared to the untreated control group ([2]; oral 20 mg/kg TID@4 h, Day 21): (100) percent
geometric mean live adult flea count ([2]; oral 20 mg/kg TID@4 h, Day 30): 0.2
geometric mean percent reduction in live adult flea counts compared to the untreated control group ([2]; oral 20 mg/kg TID@4 h, Day 30): (99.8) percent
geometric mean live adult flea count ([2]; oral 20 mg/kg TID@4 h, Day 37): 0.0
geometric mean percent reduction in live adult flea counts compared to the untreated control group ([2]; oral 20 mg/kg TID@4 h, Day 37): (100) percent
geometric mean live adult flea count ([2]; oral 20 mg/kg TID@4 h, Day 44): 0.0
geometric mean percent reduction in live adult flea counts compared to the untreated control group ([2]; oral 20 mg/kg TID@4 h, Day 44): (100) percent
geometric mean live adult flea count ([2]; oral 20 mg/kg TID@4 h, Day 51): 0.2
geometric mean percent reduction in live adult flea counts compared to the untreated control group ([2]; oral 20 mg/kg TID@4 h, Day 51): (99.7) percent
geometric mean live adult flea count ([2]; oral 20 mg/kg TID@4 h, Day 58): 0.0
geometric mean percent reduction in live adult flea counts compared to the untreated control group ([2]; oral 20 mg/kg TID@4 h, Day 58): (100) percent
geometric mean live adult flea count ([2]; oral 20 mg/kg TID@4 h, Day 72): 0.2
geometric mean percent reduction in live adult flea counts compared to the untreated control group ([2]; oral 20 mg/kg TID@4 h, Day 72): (99.8) percent
geometric mean live adult flea count ([2]; oral 20 mg/kg TID@4 h, Day 86): 4.7
geometric mean percent reduction in live adult flea counts compared to the untreated control group ([2]; oral 20 mg/kg TID@4 h, Day 86): (93.8) percent
geometric mean live adult flea count ([2]; oral 20 mg/kg TID@4 h, Day 93): 4.8
geometric mean percent reduction in live adult flea counts compared to the untreated control group ([2]; oral 20 mg/kg TID@4 h, Day 93): (93.7) percent
geometric mean live adult flea count ([2]; oral 20 mg/kg TID@4 h, Day 100): 11.4
geometric mean percent reduction in live adult flea counts compared to the untreated control group ([2]; oral 20 mg/kg TID@4 h, Day 100): (86.3) percent
geometric mean live adult flea count ([2]; oral 20 mg/kg TID@4 h, Day 107): 8.5
geometric mean percent reduction in live adult flea counts compared to the untreated control group ([2]; oral 20 mg/kg TID@4 h, Day 107): (89.6) percent
geometric mean live adult flea count ([2]; oral 60 mg/kg SID, Day 1): 0.0
geometric mean percent reduction in live adult flea counts compared to the untreated control group ([2]; oral 60 mg/kg SID, Day 1): (100) percent
geometric mean live adult flea count ([2]; oral 60 mg/kg SID, Day 7): 0.0
geometric mean percent reduction in live adult flea counts compared to the untreated control group ([2]; oral 60 mg/kg SID, Day 7): (100) percent
geometric mean live adult flea count ([2]; oral 60 mg/kg SID, Day 14): 0.0
geometric mean percent reduction in live adult flea counts compared to the untreated control group ([2]; oral 60 mg/kg SID, Day 14): 100) percent
geometric mean live adult flea count ([2]; oral 60 mg/kg SID, Day 21): 0.0
geometric mean percent reduction in live adult flea counts compared to the untreated control group ([2]; oral 60 mg/kg SID, Day 21): (100) percent
geometric mean live adult flea count ([2]; oral 60 mg/kg SID, Day 30): 0.0
geometric mean percent reduction in live adult flea counts compared to the untreated control group ([2]; oral 60 mg/kg SID, Day 30): (100) percent
geometric mean live adult flea count ([2]; oral 60 mg/kg SID, Day 37): 0.0
geometric mean percent reduction in live adult flea counts compared to the untreated control group ([2]; oral 60 mg/kg SID, Day 37): (100) percent
geometric mean live adult flea count ([2]; oral 60 mg/kg SID, Day 44): 0.0
geometric mean percent reduction in live adult flea counts compared to the untreated control group ([2]; oral 60 mg/kg SID, Day 44): (100) percent
geometric mean live adult flea count ([2]; oral 60 mg/kg SID, Day 51): 0.0
geometric mean percent reduction in live adult flea counts compared to the untreated control group ([2]; oral 60 mg/kg SID, Day 51): (100) percent
geometric mean live adult flea count ([2]; oral 60 mg/kg SID, Day 58): 0.2
geometric mean percent reduction in live adult flea counts compared to the untreated control group ([2]; oral 60 mg/kg SID, Day 58): (99.8) percent
geometric mean live adult flea count ([2]; oral 60 mg/kg SID, Day 72): 0.0
geometric mean percent reduction in live adult flea counts compared to the untreated control group ([2]; oral 60 mg/kg SID, Day 72): (100) percent
geometric mean live adult flea count ([2]; oral 60 mg/kg SID, Day 86): 1.8
geometric mean percent reduction in live adult flea counts compared to the untreated control group ([2]; oral 60 mg/kg SID, Day 86): (97.7) percent
geometric mean live adult flea count ([2]; oral 60 mg/kg SID, Day 93): 1.9
geometric mean percent reduction in live adult flea counts compared to the untreated control group ([2]; oral 60 mg/kg SID, Day 93): (97.5) percent
geometric mean live adult flea count ([2]; oral 60 mg/kg SID, Day 100): 5.2
geometric mean percent reduction in live adult flea counts compared to the untreated control group ([2]; oral 60 mg/kg SID, Day 100): (93.7) percent
geometric mean live adult flea count ([2]; oral 60 mg/kg SID, Day 107): 3.2
geometric mean percent reduction in live adult flea counts compared to the untreated control group ([2]; oral 60 mg/kg SID, Day 107): (96.2) percent

Reference: patent US20100286076A1, “ECTOPARASITICIDAL METHODS AND FORMULATIONS” (priority 2009, published 2010)
